Test results: patent US20210401776A1, “METHOD OF TREATING […] SYNDROMES USING FENFLURAMINE ENANTIOMERS” (ZOGENIX INTERNATIONAL LIMITED, priority 2018, published 2021)
Entries after “also recorded” stand apart in the source; their conditions may differ.

What was measured:
[1] = test system: homozygous scn1Lab−/− mutants; experiment: epileptiform activity, open-field recordings in larval forebrain (LFP assay); format: in vivo, zebrafish (Danio rerio)
[2] = in vivo; cited from earlier work
[3] = test system: WT scn1Lab+/+ zebrafish larvae; experiment: maximal tolerated concentration (MTC); format: in vivo, zebrafish (Danio rerio); settings: no signs of toxicity in 12 out of 12 larvae within 48 hours of exposure
Method: To evaluate the maximal tolerated concentration (MTC) of each compound, 6 dpf-old WT scn1Lab+^+/+ zebrafish larvae were incubated in a 96-well plate (tissue culture plate, flat bottom, FALCON®, USA) with different concentrations of compound or VHC at 28° C. on a 14/10 hour light/dark cycle under standard aquaculture conditions (medium is replenished daily). Each larva was individually checked under the microscope during a period of 48 hours for the following signs of toxicity: decreased or no touch response upon a light touch of the tail, loss of posture, body deformation, edema, changes in heart rate or circulation and death. […] MTC was determined as 100 micromolar (μM) for (+)-fenfluramine and both norfenfluramine enantiomers. A MTC of 50 μM was determined for (−)-fenfluramine.

dizocilpine-treated mice [4] = experiment: spontaneous alternation in the Y-maze, dizocilpine-induced amnesia model; format: in vivo, Male Swiss OF-1 mice; settings: Table 4 Y Maze
dizocilpine-treated mice [5] = experiment: dizocilpine-induced learning deficits, statements covering both tests (Y-maze and passive avoidance); format: in vivo, Male Swiss OF-1 mice
Method: Experiments were conducted to determine the dose-response effects of fenfluramine (FEN) and norfenfluramine (NOR), racemate and (+)- and (−)-isomers, in an in vivo mouse model; the dizocilpine-induced amnesia model (described below) is used to test responses to drugs acting at the sigma-1 receptor (S1R) (Maurice et al., 1994a,b; Maurice, et al., 1998, Neuroscience 83:413-428).
The drugs were administered intraperitoneally (“ip” or “IP”) with dizocilpine (0.15 mg/kg) and tested in the spontaneous alternation test on day 1 and in the passive avoidance test on days 2-3.
The apparatus consisted of a 2-compartment box, with one illuminated with white polyvinylchloride (PVC) walls and a transparent cover (15×20×15 cm high), one with black polyvinylchloride walls and cover (15×20×15 cm high), and a grid floor. A guillotine door separated each compartment. A 60 W lamp was positioned 40 cm above the apparatus lit the white compartment during the experimental period. Scrambled foot shocks (0.3 mA for 3 s) were delivered to the grid floor using a shock generator scrambler (Lafayette Instruments, Lafayette, Mass., USA). The guillotine door was initially closed during the training session. Each mouse was placed into the white compartment. After 5 s, the door was raised. When the mouse entered the darkened compartment and placed all its paws on the grid floor, the door was gently closed and the 3-scrambled foot shock was delivered for 3 s. The step-through latency, i.e., the latency spent to enter the dark compartment, and the level of sensitivity to the shock were recorded. The latter was evaluated as: 0=no sign; 1=flinching reactions; 2=flinching and vocalization reactions. The retention test was carried out 24 h after training. Each mouse was placed again into the white compartment. After 5 s, the door was raised. The step-through latency was recorded up to 300 s. Animals entered the darkened compartment or were gently pushed into it and the escape latency, i.e., the time spent to return into the white compartment, was also measured up to 300 s. Results were expressed as median and interquartile (25%-75%) range.
The Y-maze is made of grey PVC. Each arm is 40 cm long, 13 cm high, 3 cm wide at the bottom, 10 cm wide at the top, and converged at an equal angle. Each mouse was placed at the end of one arm and allowed to move freely through the maze during an 8-min session. The series of arm entries, including possible returns into the same arm, were checked visually. An alternation was defined as entries into all three arms on consecutive occasions. The number of maximum alternations was therefore the total number of arm entries minus two and the percentage of alternation was calculated as: actual alternations/maximum alternations)×100. Parameters included the percentage of alternation (memory index) and total number of arm entries (exploration index).

[6] = test system: homozygous scn1Lab−/− mutants; experiment: zebrafish locomotor assay (total distance in large movements, lardist); format: in vivo, zebrafish (Danio rerio); settings: scn1Lab−/− mutants, fixed concentration, FIG. 3
Excerpt: (Baraban et al, 2013). Additional phenotypes of these mutants include: abnormal optokinetic response (OKR; 5 dpf); darkened pigmentation; death by 14 dpf; spontaneous seizure-like activity; abnormal (forebrain electrographic activity (3-7 dpf); seizure activity; lower levels of serotonin in scn1lab^−/− head homogenates at 7 dpf; zebrafish express orthologs of human serotonin (5HT) receptor subtypes at 5 dpf; nighttime hyperactivity (5 dpf); in open field-increased thigmotaxis. decreased movement (at 5 dpf); no differences in GABAergic neurons compared to wild type (5 dpf); 5-HT2a (hitr2aa/b) and S-HT2c; (htr2c11) orthologs expressed in larval heads in wild-type and scn1lab−/− mutants and in adult wild-type brains.
To assay the locomotor activity of homozygous scn1Lab−/− mutants and control WT scn1Lab+/+, zebrafish larvae were placed one larva per well in a 96-well plate in 100 μL of embryo medium from 4 to 8 days post-fertilization (dpf). Each day the larvae are tracked in an automated tracking device (ZebraBox™ apparatus; Viewpoint, Lyon, France) for 10 min after 30 min habituation (100-second integration interval). All recordings were performed at the same time during daytime period. The total distance in large movements was recorded and quantified using ZebraLab™ software (Viewpoint, Lyon, France). Data was pooled together from at least three independent experiments with at least 24 larvae per condition.
Scn1Lab^−/− mutants and WT scn1Lab+/+ larvae are arrayed in the same plate and treated at 6 days post fertilization (dpf) with the test compounds (25 μM), or VHC in individual wells of a 96-well plate. After incubation at 28° C. on a 14/10 hour light/dark cycle and 30-min chamber habituation 6 and 7 dpf larvae are tracked for locomotor activity for 10 min (100-second integration interval) under dark conditions. An incubation time of 1.5 hours is further referred to as short treatment (6 dpf). Furthermore, these larvae are analyzed after more than 22 hours incubation (7 dpf), i.e. long treatment. The total locomotor activity is quantified using the parameter lardist and plotted in cm. Data for each compound is pooled together from multiple independent experiments with at least 9 larvae per treatment condition.

dizocilpine-treated mice [7] = experiment: step-through passive avoidance, dizocilpine-induced amnesia model; format: in vivo, Male Swiss OF-1 mice; settings: Table 4 StepThrough/PassiveAvoidance

CCN[C@H](C)Cc1cccc(C(F)(F)F)c1 [(−)-Fenfluramine, (2R)-N-ethyl-1-[3-(trifluoromethyl)phenyl]propan-2-amine]
anti-epileptiform activity (frequency and cumulative duration of epileptiform events over 10 minutes) ([1]; 50 micromolar, FIGS. 4 and 5): comparable | LFP Assay ([1]; Table 1, 25, 59 and 100 μM, oral via embryo medium): Also reduces spikes but less; also recorded: Normal dose-response; higher | mean elimination half-life [2]: 25 h | maximum tolerated concentration (MTC) [3]: 50 µM | PP (%) (dizocilpine-treated mice [4]; drug alone 0.3 mg/kg IP): 3.2 ± 8.1% | PP (%) (dizocilpine-treated mice [4]; drug alone 1 mg/kg IP): 13.8 ± 10.5 ^2% | effect on PRE-084 efficacy (dizocilpine-treated mice [5]; 1 mg/kg on effective doses of PRE-084 (0.3-1 mg/kg), FIG. 10 (e, f)): without effect on PRE-084 efficacy | effect on PRE-084 efficacy (dizocilpine-treated mice [5]; combined with PRE-084 in dizocilpine-treated mice): without any effect on PRE-084 efficacy | behavior as S1R antagonist (dizocilpine-treated mice [5]; mouse, in vivo): does not behave as a S1R antagonist | reduction in seizure behavior [6]: 41% | PP (%) (dizocilpine-treated mice [7]; drug alone 0.3 mg/kg IP): 3.9 ± 8.4% | PP (%) (dizocilpine-treated mice [7]; drug alone 1 mg/kg IP): 7.3 ± 13.8 ^4%
